{"source": "patent US12673038B2", "about": "“Antimycotic methoxyflavone and fluconazole combination for inhibiting cryptococcus” (Karl-Franzens-Universität Graz, priority 2019, dated 2026)", "key": {"S. cerevisiae BY4741": {"tested_on": "S. cerevisiae BY4741", "test": "AnnexinV/PI co-staining for cell death markers (flow cytometry)", "assay_type": "cell-based, Saccharomyces cerevisiae", "details": "day 3 after treatment, indicated concentrations", "procedure": "S. cerevisiae BY4741 cells were grown in SMD minimal media to mid-log phase and then treated with the indicated concentrations of 5-MF; control cells were treated with the same amount of solvent (DMSO). (A) Clonogenicity was assayed by plating 500 cells on YPD agar plates and colony forming units (CFUs) were counted to calculate survival rates. (B) Yeast cells were analyzed for cell death markers via AnnV/PI co-staining using flow cytometry. (C) The accumulation of reactive oxygen species was monitored by dihydrotethidium (DHE) to ethidium (Eth) conversion using flow cytometry. Assays in (A-C) were performed on day 3 after treatment. […] Data was analyzed by one-way ANOVA and corrected for multiple comparison using a Bonferroni post-hoc test. ns: not significant, * p<0.05, *** p<0.001, **** p<0.0001. […] Cell death markers were assessed by AnnexinV/PI co-staining. Therefore, 1-2×10^7 cells were harvested and treated with 3 μL […]; Sigma, Germany) and 15 μL glucuronidase/arylsulfatase (4.5 U/mL; Roche, Austria) for sphaeroblastation (60 min at 28° C. and 145 rpm). Resulting sphaeroblasts were co-stained with AnnexinV (Roche, Austria) and PI (Sigma, Germany) and analyzed via flow cytometry, using an LSRII Fortessa (BD, Ex: 488 nm; Em: 695 nm for PI and 530 nm for FITC). At least 30,000 cells were analyzed for each sample."}, "[1]": {"tested_on": "C. albicans SC5314 biofilms", "test": "Biofilm inhibition concentration (BIC), CTB staining", "assay_type": "cell-based", "details": "Candida albicans, C. albicans SC5314 biofilm formation, mean±SEM, read-out: BIC-50"}, "C. glabrata biofilms": {"tested_on": "C. glabrata biofilms", "test": "Biofilm inhibition by plating (CFU of biofilm cells)", "assay_type": "cell-based, Candida glabrata", "details": "different concentrations of 5-MF"}}, "data": [{"smiles": "COc1cccc2oc(-c3ccccc3)cc(=O)c12", "note": "[5-MF, 5-methoxyflavone]", "values": [{"measurement": "cell death markers, PI-positive fraction (AnnV/PI co-staining)", "setting": "S. cerevisiae BY4741", "result": "mainly increased the PI-positive fraction in a concentration-dependent manner"}, {"measurement": "IC50", "setting": "[1]", "result": "216 ± 26.6", "unit": "µM"}, {"measurement": "number of biofilm cells (CFUs on YPD agar)", "setting": "C. glabrata biofilms", "result": "decreased in a concentration-dependent manner"}]}]}
